# Key:
# lens aldose reductase = target: T1, lens aldose reductase (Bos taurus, UniProt P16116); experiment: in vitro aldose reductase inhibition (modified Hayman and Kinoshita procedure); format: biochemical; conditions: enzyme from bovine lens, read-out: % Inhibition at Different Molar Concentrations (in vitro); for inhibition at 10 µM: 10^-5 molar; for inhibition at 1 µM: 10^-6 molar; for inhibition at 0.1 µM: 10^-7 molar
# T1 construct: the preparation of the enzyme from bovine lens; from tissue; host or cells: bovine lens
# Source text: In the present case, the procedure of Hayman and Kinoshita is modified in that the final chromatography step is omitted in the preparation of the enzyme from bovine lens.
# Table 1 gives the results of the compounds of formula I or an addition salt thereof when evaluated in the above in vitro test.
# [1] = test system: dulcitol accumulation in the lens; experiment: galactosemic rats: decrease of dulcitol accumulation in the lens; format: in vivo, rat (Sprague-Dawley)
# Source text: The aldose reductase inhibiting property of a compound of formula I and its utilization in diminishing and alleviating diabetic complications also are demonstrable in experiments using galactosemic rats, see D. Dvornik et al., Science, 182, 1146 (1973). Such experiments are exemplified hereinbelow after the listing of the following general comments pertaining to these experiments:
# (a) Four or more groups of six male rats, 50-70 g, Sprague-Dawley strain, were used. The first group, the control group, was fed a mixture of laboratory chow (rodent laboratory chow, Purina) and glucose at 20% (w/w %) concentration. The untreated galactosemic group was fed a similar diet in which galactose is substituted for glucose. The other groups were fed diets containing various amounts of the compound of formula I in the galacetose containing diet. The concentration of galactose in the diet of the treated groups was the same as that for the untreated galactosemic group.
# (b) After four days, the animals were killed by decapitation. The eyeballs were removed and punctured with a razor blade; the freed lenses were rolled gently on filter paper and weighed. The sciatic nerves were dissected as completely as possible and weighed. Both tissues were frozen and kept up to two weeks before being analyzed for dulcitol.
# (c) The tissues were homoginized in 5% (w/v) trichloroacetic acid and the polyol determination on the extracts were performed by a modification of the procedure of M. Kraml and L. Cosyns, Clin. Biochem., 2, 373 (1969). Only two minor reagent changes were made: (a) The rinsing mixture was an aqueous 5% (w/v) trichloroacetic acid solution and (b) the stock solution was prepared by dissolving 25 mg of dulcitol in 100 ml of an aqueous trichloroacetic acid solution. [N.B.: For each experiment the average value found in the tissued from rats fed the glucose diet was subtracted from the individual values found in the corresponding rat tissue to obtain the amount of polyol accumulated].
# The results obtained are exemplified in Table 2, wherein the values under L and N respectively, represent the percentage decreases of dulcitol accumulation in the tissues of the lens, and sciatic nerve for treated rats as compared to controls.
# [2] = 131 mg/kg/day in galactose diet, 4 days, vs controls
Structure (SMILES),inhibition at 10 µM (lens aldose reductase) [%],inhibition at 1 µM (lens aldose reductase) [%],inhibition at 0.1 µM (lens aldose reductase) [%],"percentage decrease of dulcitol accumulation in lens (L) ([1]; 144 mg/kg, 96 h) [%]","percentage decrease of dulcitol accumulation in lens (L) ([1]; 128 mg/kg/day in galactose diet, 4 days, vs controls) [%]","percentage decrease of dulcitol accumulation in lens (L) [1, 2] [%]","percentage decrease of dulcitol accumulation in lens (L) ([1]; 150 mg/kg/day in galactose diet, 4 days, vs controls) [%]","percentage decrease of dulcitol accumulation in lens (L) ([1]; 134 mg/kg/day in galactose diet, 4 days, vs controls) [%]","percentage decrease of dulcitol accumulation in lens (L) ([1]; 165 mg/kg/day in galactose diet, 4 days, vs controls) [%]","percentage decrease of dulcitol accumulation in lens (L) ([1]; 141 mg/kg/day in galactose diet, 4 days, vs controls) [%]"
"CN(C)CCCOC(=O)CN1C(=S)c2cccc3c(Cl)ccc1c23 [6-Chloro-2-thioxo-benz[cd]indole-1(2H)-acetic Acid, 3-Dimethylamino-1propylEster]",91,70,14,28,,,,,,
O=C(O)CN1C(=S)c2cccc3c(F)ccc1c23 [6-fluoro-2-thioxo-benz[cd]indole-1(2H)-acetic acid],94,88,56,,,,,,,
"O=C(O)CN1C(=S)c2cccc3c(Cl)cc(Cl)c1c23 [6,8-dichloro-2-thioxo-benz[cd]indole-1(2H)-acetic acid]",94,76,30,,18,,,,,
"O=C(O)CN1C(=S)c2cccc3c(Br)cc(Br)c1c23 [6,8-dibromo-2-thioxo-benz[cd]indole-1(2H)-acetic acid]",89,56,13,,,9,,,,
"NCCOC(=O)CN1C(=S)c2cccc3cccc1c23 [2-Thioxo-benz[cd]indole-1(2H)-acetic Acid, 2-Amino-ethyl Ester]",83,29,,,,,,,,
"CCOC(=O)CN1C(=S)c2cccc3cccc1c23 [2-thioxo-benz[cd]indole-1(2H)-acetic acid, ethyl ester]",66,11,,,,,11,,,
O=C(O)CN1C(=S)c2cccc3c(Cl)ccc1c23 [6-chloro-2-thioxo-benz[cd]indole-1(2H)-acetic acid],96,91,66,,,,,27,,
O=C(O)CN1C(=S)c2cccc3c(Br)ccc1c23 [6-Bromo-2-thioxo-benz[cd]indole-1(2H)-acetic Acid],95,91,79,,,27,,,,
O=C(O)CN1C(=S)c2cccc3cccc1c23 [2-thioxo-benz[cd]indole-1(2H)-acetic acid],93,87,61,,,,,,18,
O=C(O)CN1C(=S)c2cccc3c(I)ccc1c23 [6-iodo-2-thioxo-benz[cd]indole-1(2H)-acetic acid],93,91,81,,,,,,,32

# — patent US4369188A, “2-Thioxobenz[cd]indole-1(2H)-acetic acid derivatives” (Ayerst, McKenna & Harrison Inc., priority 1981, dated 1983)
